Where a SMILES comes first, the peptide text is derived from it.
Experiments:
HLA-A24.02 = experiment: Class I MHC peptide binding affinity (displacement of radiolabeled reference peptide); parameters: species or system human; conditions: allele A24.02; read-out: Observed Affinity (IC50; (nM))
HLA-A03.01 = HLA-A03.01 (Homo sapiens, UniProt P04439); experiment: as above; conditions: allele A03.01; read-out: Observed Affinity (IC50; (nM))
HLA-A02.01 [1] = target: T1, HLA-A02.01 (Homo sapiens, UniProt P04439, D140Y/D185E/D98H/E176V/E277Q/G131W/G231S/I119V/I121R/I166T/I218V/N151K/N90K/P208A/P217A/Q86G/Q94H/R138H/R169H); experiment: Class I MHC peptide binding stability (pMHC-I dissociation, 125I-labeled light chain); conditions: allele A02.01
T1 construct: made in house; host or cells: E. coli

HLA-A02.01 [2] = target: HLA-A02.01 (Homo sapiens, UniProt P04439, D140Y/D185E/D98H/E176V/E277Q/G131W/G231S/I119V/I121R/I166T/I218V/L300P/L318F/N151K/N90K/P208A/P217A/Q86G/Q94H/R138H/R169H/T345S); experiment: Class I MHC peptide binding affinity (displacement of radiolabeled reference peptide); conditions: for IC50: allele A02.01, read-out: Observed Affinity (IC50, (nM))
How it was run: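 Steps: form MHCI complexes carrying labeled reference peptide; add competitor peptides at graded doses; incubate 2 days; separate complex-bound from free label by size-exclusion chromatography and count what remains bound.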

| IC50 (HLA-A24.02) [nM] | IC50 (HLA-A03.01) [nM] | Compound | also measured |
| --- | --- | --- | --- |
| 73.4 | – | CC[C@H](C)[C@H](NC(=O)[C@H](Cc1ccc(O)cc1)NC(=O)[C@H](CS)NC(=O)[C@H](Cc1ccccc1)NC(=O)[C@@H](N)Cc1ccccc1)C(=O)N[C@@H](CC(C)C)C(=O)N[C@@H](CC(N)=O)C(=O)N[C@H](C(=O)N[C@@H](CCSC)C(=O)N[C@@H](Cc1ccccc1)C(=O)O)[C@@H](C)O (H-FFCYILNTMF-OH; N-terminus and C-terminus assumed) | – |
| 0.4 | – | CC[C@H](C)[C@H](NC(=O)[C@H](Cc1ccc(O)cc1)NC(=O)[C@@H](N)CC(C)C)C(=O)N[C@H](C(=O)N[C@@H](C)C(=O)N[C@@H](Cc1ccccc1)C(=O)N[C@@H](Cc1ccccc1)C(=O)N[C@@H](CC(C)C)C(=O)N[C@@H](CC(C)C)C(=O)N[C@@H](CC(=O)O)C(=O)O)[C@@H](C)O (H-LYITAFFLLD-OH; N-terminus and C-terminus assumed) | – |
| 0.1 | – | CC[C@H](C)[C@H](NC(=O)[C@H](Cc1ccc(O)cc1)NC(=O)[C@@H](N)CC(C)C)C(=O)N[C@H](C(=O)N[C@@H](C)C(=O)N[C@@H](Cc1ccccc1)C(=O)N[C@@H](Cc1ccccc1)C(=O)N[C@@H](CC(C)C)C(=O)N[C@@H](CC(C)C)C(=O)O)[C@@H](C)O (H-LYITAFFLL-OH; N-terminus and C-terminus assumed) | – |
| – | 10500 | CC[C@H](C)[C@H](NC(=O)[C@H](Cc1ccc(O)cc1)NC(=O)[C@H](CC(C)C)NC(=O)[C@H](CO)NC(=O)[C@H](CC(N)=O)NC(=O)[C@H](CS)NC(=O)[C@H](CCC(=O)O)NC(=O)[C@H](Cc1c[nH]cn1)NC(=O)[C@H](CC(C)C)NC(=O)[C@@H](N)C(C)C)C(=O)O (H-VLHECNSLYI-OH; N-terminus and C-terminus assumed) | IC50 (HLA-A02.01 [2]): 10 nM; Stability (T1/2 (h)) (HLA-A02.01 [1]): 5.1 h |
| 60.1 | – | CC[C@H](C)[C@H](NC(=O)[C@H](Cc1ccc(O)cc1)NC(=O)[C@H](CC(C)C)NC(=O)[C@@H](N)CC(C)C)C(=O)N[C@H](C(=O)N[C@@H](C)C(=O)N[C@@H](Cc1ccccc1)C(=O)N[C@@H](Cc1ccccc1)C(=O)N[C@@H](CC(C)C)C(=O)N[C@@H](CC(C)C)C(=O)O)[C@@H](C)O (H-LLYITAFFLL-OH; N-terminus and C-terminus assumed) | IC50 (HLA-A02.01 [2]): 323 nM |
| – | 8.6 | CC(C)[C@H](NC(=O)[C@@H](N)CCCNC(=N)N)C(=O)N[C@@H](CC(N)=O)C(=O)N[C@H](C(=O)N[C@@H](C)C(=O)N[C@@H](Cc1c[nH]c2ccccc12)C(=O)N[C@@H](CCCCN)C(=O)N[C@H](C(=O)N[C@@H](CCCCN)C(=O)O)[C@@H](C)O)[C@@H](C)O (H-RVNTAWKTK-OH; N-terminus and C-terminus assumed) | – |
| – | 2360 | CC[C@H](C)[C@H](NC(=O)[C@H](C)NC(=O)[C@H](CS)NC(=O)[C@@H](NC(=O)[C@H](Cc1ccc(O)cc1)NC(=O)[C@@H](N)[C@@H](C)O)[C@@H](C)O)C(=O)N[C@H](C(=O)N[C@H](C(=O)N[C@H](C(=O)N[C@@H](CCCCN)C(=O)O)C(C)C)[C@@H](C)O)[C@@H](C)O (H-TYTCAITTVK-OH; N-terminus and C-terminus assumed) | – |
| – | 749 | CSCC[C@H](NC(=O)[C@@H](NC(=O)[C@H](Cc1ccccc1)NC(=O)[C@@H](N)CC(C)C)C(C)C)C(=O)N[C@@H](CO)C(=O)N[C@@H](CC(=O)O)C(=O)N[C@H](C(=O)N[C@H](C(=O)N[C@@H](Cc1ccc(O)cc1)C(=O)N[C@@H](CCCCN)C(=O)O)[C@@H](C)O)[C@@H](C)O (H-LFVMSDTTYK-OH; N-terminus and C-terminus assumed) | – |

The next lines start with the molecule.

| Compound | IC50 (HLA-A24.02) [nM] | IC50 (HLA-A03.01) [nM] | also measured |
| --- | --- | --- | --- |
| CSCC[C@H](NC(=O)[C@H](CCC(=O)O)NC(=O)[C@H](CC(C)C)NC(=O)[C@H](CC(C)C)NC(=O)[C@H](CC(C)C)NC(=O)CNC(=O)[C@H](Cc1ccc(O)cc1)NC(=O)[C@@H](N)CC(C)C)C(=O)N[C@@H](CC(C)C)C(=O)O (H-LYGLLLEML-OH; N-terminus and C-terminus assumed) | 0.8 | – | – |
| CC(C)C[C@H](NC(=O)[C@H](CC(C)C)NC(=O)[C@H](CCC(=O)O)NC(=O)[C@@H]1CCCN1C(=O)[C@H](Cc1ccccc1)NC(=O)[C@@H](N)CCCCN)C(=O)N[C@@H](CS)C(=O)N[C@H](C(=O)N[C@@H](Cc1c[nH]c2ccccc12)C(=O)O)C(C)C (H-KFPELLCVW-OH; N-terminus and C-terminus assumed) | 13.7 | – | – |
| CC(C)C[C@H](NC(=O)[C@@H](N)CCCNC(=N)N)C(=O)N[C@@H](CO)C(=O)N[C@@H](CO)C(=O)N[C@@H](CS)C(=O)N[C@H](C(=O)N1CCC[C@H]1C(=O)N[C@H](C(=O)N[C@@H](C)C(=O)O)C(C)C)C(C)C | – | 439 | Stability (T1/2 (h)) (HLA-A02.01 [1]): 18.7 h |
| CSCC[C@H](NC(=O)[C@@H](N)CCCNC(=N)N)C(=O)N1CCC[C@H]1C(=O)N1CCC[C@H]1C(=O)N[C@@H](CS)C(=O)N[C@@H](CC(C)C)C(=O)N[C@@H](C)C(=O)N[C@@H](CC(N)=O)C(=O)N[C@@H](Cc1ccccc1)C(=O)O (H-RMPPCLANF-OH; N-terminus and C-terminus assumed) | 8.7 | – | – |
| CC[C@H](C)[C@H](NC(=O)[C@H](CC(C)C)NC(=O)[C@H](CCC(N)=O)NC(=O)[C@@H](N)C(C)C)C(=O)N[C@@H](CCSC)C(=O)N[C@@H](CCC(N)=O)C(=O)N[C@@H](CC(C)C)C(=O)N[C@@H](CCSC)C(=O)N1CCC[C@H]1C(=O)N[C@@H](Cc1ccccc1)C(=O)O | 4560 | – | Kd (HLA-A02.01 [2]; EGFR T790M peptides, HLA allele A02.01, read-out: Affinity): 4.94 µM; IC50 (HLA-A02.01 [2]): 5490 nM |
| CSCC[C@H](NC(=O)[C@H](CCCNC(=N)N)NC(=O)[C@@H](N)CCCNC(=N)N)C(=O)N1CCC[C@H]1C(=O)N1CCC[C@H]1C(=O)N[C@@H](CS)C(=O)N[C@@H](CC(C)C)C(=O)N[C@@H](C)C(=O)N[C@@H](CC(N)=O)C(=O)N[C@@H](Cc1ccccc1)C(=O)O (H-RRMPPCLANF-OH; N-terminus and C-terminus assumed) | 141 | – | – |
| CC(C)C[C@H](NC(=O)[C@@H](NC(=O)[C@H](CO)NC(=O)[C@H](CO)NC(=O)[C@H](CC(C)C)NC(=O)[C@@H](N)CCCNC(=N)N)C(C)C)C(=O)N[C@@H](CCC(N)=O)C(=O)N[C@@H](CCCNC(=N)N)C(=O)N[C@@H](Cc1ccccc1)C(=O)O (H-RLSSVLQRF-OH; N-terminus and C-terminus assumed) | 28.2 | – | – |
| CC(C)C[C@H](NC(=O)[C@H](CS)NC(=O)[C@H](CO)NC(=O)[C@H](Cc1ccccc1)NC(=O)[C@H](CC(C)C)NC(=O)[C@H](CCCCN)NC(=O)[C@H](Cc1ccccc1)NC(=O)CN)C(=O)N[C@@H](CO)C(=O)N[C@@H](Cc1ccccc1)C(=O)O (H-GFKLFSCLSF-OH; N-terminus and C-terminus assumed) | 643 | – | – |
| CC(C)C[C@H](NC(=O)[C@H](Cc1ccccc1)NC(=O)[C@H](CO)NC(=O)[C@H](CC(C)C)NC(=O)[C@H](CS)NC(=O)[C@H](CO)NC(=O)[C@H](Cc1ccccc1)NC(=O)[C@H](CC(C)C)NC(=O)[C@@H](N)CCCCN)C(=O)N[C@@H](CO)C(=O)O (H-KLFSCLSFLS-OH; N-terminus and C-terminus assumed) | – | 104 | IC50 (HLA-A02.01 [2]): 0.6 nM |
| CC[C@H](C)[C@H](NC(=O)[C@H](CCCCN)NC(=O)[C@H](CO)NC(=O)[C@H](CCC(=O)O)NC(=O)[C@H](C)NC(=O)[C@H](CCCCN)NC(=O)[C@H](CC(C)C)NC(=O)[C@H](Cc1ccccc1)NC(=O)[C@@H](N)CCSC)C(=O)O (H-MFLKAESKI-OH; N-terminus and C-terminus assumed) | 332 | – | – |
| CC[C@H](C)[C@H](NC(=O)[C@@H]1CCCN1C(=O)[C@H](Cc1ccccc1)NC(=O)[C@H](Cc1ccccc1)NC(=O)[C@H](CCCNC(=N)N)NC(=O)[C@H](C)NC(=O)[C@H](CC(C)C)NC(=O)[C@H](CCC(N)=O)NC(=O)[C@@H](N)[C@@H](C)O)C(=O)O | 52 | – | IC50 (HLA-A02.01 [2]): 19 nM |
| CSCC[C@H](NC(=O)[C@@H](N)C(C)C)C(=O)N[C@@H](C)C(=O)NCC(=O)N[C@@H](CC(C)C)C(=O)NCC(=O)N[C@@H](CO)C(=O)N1CCC[C@H]1C(=O)N[C@@H](Cc1ccc(O)cc1)C(=O)N[C@H](C(=O)O)C(C)C (H-VMAGLGSPYV-OH; N-terminus and C-terminus assumed) | – | 11200 | IC50 (HLA-A02.01 [2]): 102 nM; Stability (T1/2 (h)) (HLA-A02.01 [1]): 2.9 h |
| CC[C@H](C)[C@H](NC(=O)[C@H](Cc1c[nH]c2ccccc12)NC(=O)[C@H](CC(C)C)NC(=O)[C@@H]1CCCN1C(=O)[C@H](CO)NC(=O)[C@H](CCCNC(=N)N)NC(=O)[C@H](CC(C)C)NC(=O)[C@@H](N)CCCCN)C(=O)N[C@@H](Cc1ccccc1)C(=O)O (H-KLRSPLWIF-OH; N-terminus and C-terminus assumed) | 828 | – | – |
| CC[C@H](C)[C@H](NC(=O)[C@H](Cc1ccc(O)cc1)NC(=O)[C@@H](N)CC(C)C)C(=O)N[C@H](C(=O)N[C@@H](C)C(=O)N[C@@H](Cc1ccccc1)C(=O)N[C@@H](Cc1ccccc1)C(=O)N[C@@H](Cc1ccccc1)C(=O)N[C@@H](CS)C(=O)N[C@@H](Cc1c[nH]c2ccccc12)C(=O)O)[C@@H](C)O (H-LYITAFFFCW-OH; N-terminus and C-terminus assumed) | 45.3 | – | – |
| CC[C@H](C)[C@H](NC(=O)[C@H](C)N)C(=O)N[C@@H](CO)C(=O)N[C@H](C(=O)N[C@@H](CCCNC(=N)N)C(=O)N[C@@H](CC(=O)O)C(=O)N1CCC[C@H]1C(=O)N[C@@H](CC(C)C)C(=O)N[C@@H](CO)C(=O)N[C@@H](CCCCN)C(=O)O)[C@@H](C)O (H-AISTRDPLSK-OH; N-terminus and C-terminus assumed) | – | 57.5 | – |
